# Test results as given in patent publication US7569239B2, “Antioxidative compositions” (priority 2002, dated 2009).
# Test system: colitis (colon growth caused by inflammation)
# Test: DNBS-induced colitis in rats (animal model for inflammatory bowel disease)
# Assay type: in vivo, male Spregue-Dawley rats
# Conditions: oral once a day for 7 days, rat
# Protocol: In one experiment, male Spregue-Dawley rats (150-180 gram; Charles River Lab, Boston, Mass.) were kept in filter-topped cages with free access to food and water, and housed in a positive pressure room with controlled temperature and photoperiod during studies. As an animal model for inflammatory bowel disease (e.g., Crohn's disease), colitis (colon growth caused by inflammation) was induced by intracolonic instillation of 25 mg of a hapten reagent, 2,4-dinitrobenzenesulfonic acid (TCI, Japan), in 0.5 ml of 30% vol/vol ethanol. Each rat was first anaesthetized with […]/ethanol was injected into the colon, 8 cm proximal to the anus, with a PE 50 cannula. 2 ml of air was then gently injected through the cannula to ensure that the solution remained in the colon. The rat was then kept in a vertical position for 30 second and returned to its cage. By using the same procedures, rats in the blank-control group received 0.5 ml of 30% ethanol. See Hogaboam, et al., Eur. J. Pharmacol. (1996) 309:261-269. […] Each daily dose contained 3.125 mg to 25 mg of quercetin aglycon for each kilogram of body weight. The weight of each rat was monitored every 24 hours. […] Before removal of each colon, the presence or absence of adhesions between the colon and other organs were recorded upon opening the abdominal cavity. The colon-to-body weight ratio was then calculated for each animal. […]
smiles,measurement,setting,value
O=c1c(O)c(-c2ccc(O)c(O)c2)oc2cc(O)cc(O)c12 [quercetin aglycon],inhibition of colon growth (colon-to-body weight ratio),3.125 mg/kg quercetin aglycon,failed to do so
same,inhibition of colon growth (colon-to-body weight ratio),25 mg/kg quercetin aglycon,inhibited colon growth
